US9862726B2, “Opioid receptor modulating oxabicyclo[2.2.2]octane morphinans” (PURDUE PHARMA L.P., priority 2013, dated 2018)

Tests used:
μ-opioid receptor [1] = biological target: T1, μ-opioid receptor (Homo sapiens (Human), UniProt P35372); assay: μ-opioid receptor radioligand dose-displacement binding assay (HEK-293 cells)
Experimental: Radioligand dose-displacement binding assays for μ-opioid receptors used 0.3 nM [^3H]-diprenorphine (Perkin Elmer, Shelton, Conn.), with […] membrane protein/well in a final volume of 500 μl binding buffer (10 mM MgCl2, 1 mM EDTA, 5% DMSO, 50 mM HEPES, pH 7.4). Reactions were carried out in the absence or presence of increasing concentrations of unlabeled naloxone. All reactions were conducted in 96-deep well polypropylene plates for 2 hours at room temperature. Binding reactions were terminated by rapid filtration onto 96-well Unifilter GF/C filter plates (Perkin Elmer, Shelton, Conn.), presoaked in 0.5% polyethylenimine using a 96-well tissue harvester (Perkin Elmer, Shelton, Conn.) followed by performing three filtration washes with 500 μl of ice-cold binding buffer. Filter plates were subsequently dried at 50° C. for 2-3 hours. BetaScint scintillation cocktail (Perkin Elmer, Shelton, Conn.) was added (50 μl/well), and plates were counted using a Packard Top-Count for 1 min/well. The data were analyzed using the one-site competition curve fitting functions in GraphPad PRISM™ v. 3.0 or higher (San Diego, Calif.), or an in-house function for one-site competition curve-fitting.
(§1) In TABLE 3, binding affinity of certain Compounds of the Invention to the μ- and κ-opioid receptors was determined as described above using HEK-293 cells.

[2] = biological target: recombinant human kappa opioid receptor (κ) (Homo sapiens (Human), UniProt P41145); assay: κ-opioid receptor radioligand dose-displacement binding assay (HEK-293 cells)
Experimental: Membranes from HEK-293 cells, CHO cells or U-2 OS cells expressing the recombinant human kappa opioid receptor (κ) were prepared by lysing cells in ice cold hypotonic buffer (2.5 mM MgCl2, 50 mM HEPES, pH 7.4) (10 mL/10 cm dish) followed by homogenization with a tissue grinder/Teflon pestle. Membranes from a cell line naturally expressing kappa opioid receptor can also be used. Membranes were collected by centrifugation at 30,000×g for 15 min at 4° C. and pellets were resuspended in hypotonic buffer to a final concentration of 1-3 mg/mL. Protein concentrations were determined using the BioRad protein assay reagent with bovine serum albumen as standard. Aliquots of κ receptor membranes were stored at −80° C.
Radioligand dose displacement assays used 0.4 nM [^3H]-U69,593 (GE Healthcare, Piscataway, N.J.; 40 Ci/mmole) with 15 μg membrane protein (recombinant κ opioid receptor expressed in HEK 293 cells; in-house prep) in a final volume of 200 μl binding buffer (5% DMSO, 50 mM Trizma base, pH 7.4). Non-specific binding was determined in the presence of 10 μM unlabeled naloxone or U69,593. All reactions were performed in 96-well polypropylene plates for 1 hour at a temperature of about 25° C. Binding reactions were terminated by rapid filtration onto 96-well Unifilter GF/C filter plates (Perkin Elmer, Shelton, Conn.) presoaked in 0.5% polyethylenimine (Sigma). Harvesting was performed using a 96-well tissue harvester (Perkin Elmer, Shelton, Conn.) followed by five filtration washes with 200 μl ice-cold binding buffer. Filter plates were subsequently dried at 50° C. for 1-2 hours. Fifty μl/well scintillation cocktail (Perkin Elmer, Shelton, Conn.) was added and plates were counted in a Packard Top-Count for 1 min/well.
as §1

μ-opioid receptor [3] = biological target: T1, μ-opioid receptor; assay: μ-opioid receptor [35S]GTPγS functional assay (HEK-293 cells); type: biochemical; conditions: for Emax: HEK-293 cells, relative to DAMGO
Experimental: (§2) [^35S]GTPγS functional assays were conducted using freshly thawed μ-receptor membranes prepared in-house from a cell line expressing recombinant μ opioid receptor in a HEK-293, CHO or U-2 OS cell background, or purchased from a commercial source (Perkin Elmer, Shelton, Conn.; or DiscovRx, Fremont, Calif.). Assay reactions were prepared by sequentially adding the following reagents to binding buffer (100 mM NaCl, 10 mM MgCl2, 20 mM HEPES, pH 7.4) on ice (final concentrations indicated): membrane protein (0.026 mg/mL), saponin ([…]), GDP ([…]) and [^35S]GTPγS (0.20 nM; Perkin Elmer, Shelton, Conn.). The prepared membrane solution (190 μl/well) was transferred to 96-shallow well polypropylene plates containing 10 μl of 20× concentrated stock solutions of the agonist [D-Ala^2, N-methyl-Phe^4 Gly-ol^5]-enkephalin (DAMGO) prepared in dimethyl sulfoxide (DMSO). Plates were incubated for 30 min at about 25° C. with shaking. Reactions were terminated by rapid filtration onto 96-well Unifilter GF/B filter plates (Perkin Elmer, Shelton, Conn.) using a 96-well tissue harvester (Perkin Elmer, Shelton, Conn.) followed by three filtration washes with 200 μl of ice-cold wash buffer (10 mM NaH2PO4, 10 mM Na2HPO4, pH 7.4). Filter plates were subsequently dried at 50° C. for 2-3 hours. BetaScint scintillation cocktail (Perkin Elmer, Shelton, Conn.) was added (50 μl/well) and plates were counted using a Packard Top-Count for 1 min/well. Data were analyzed using the sigmoidal dose-response curve fitting functions in GraphPad PRISM v. 3.0, or an in-house function for non-linear, sigmoidal dose-response curve-fitting. [^35S]GTPγS functional assays can also be conducted using freshly thawed μ-receptor membranes prepared from a cell line expressing recombinant μ opioid receptor in a CHO-K1 cell background.
(§3) μ GTP EC50 is the concentration of a compound providing 50% of the maximal response for the compound at a μ-opioid receptor.
(§4) μ GTP Emax (%) is the maximal effect elicited by a compound relative to the effect elicited by DAMGO, a standard μ agonist.
In TABLE 4, activity response of certain Compounds of the Invention to the μ- and κ-opioid receptors was determined as described above for functional assays using HEK-293 cells.

μ-opioid receptor [4] = biological target: T1, μ-opioid receptor; assay: μ-opioid receptor functional assay (U-2 OS cells); type: biochemical; conditions: for Emax: U-2 OS cells, relative to DAMGO
Experimental: as §2, §3, §4

κ-opioid receptor = κ-opioid receptor (Homo sapiens (Human), UniProt P41145); assay: κ-opioid receptor functional assay (U-2 OS cells); type: biochemical; conditions: for Emax: U-2 OS cells, relative to U69,593
Experimental: Functional [^35S]GTPγS binding assays were conducted as follows. κ opioid receptor membrane solution was prepared by sequentially adding final concentrations of 0.026 μg/μl κ membrane protein (in-house), 10 μg/mL saponin, 3 μM GDP and 0.20 nM [^35S]GTPγS to binding buffer (100 mM NaCl, 10 mM MgCl2, 20 mM HEPES, pH 7.4) on ice. The prepared membrane solution (190 μl/well) was transferred to 96-shallow well polypropylene plates containing 10 μl of 20× concentrated stock solutions of agonist prepared in DMSO. Plates were incubated for 30 min at a temperature of about 25° C. with shaking. Reactions were terminated by rapid filtration onto 96-well Unifilter GF/B filter plates (Perkin Elmer, Shelton, Conn.) using a 96-well tissue harvester (Packard) and followed by three filtration washes with 200 μl ice-cold binding buffer (10 mM NaH2PO4, 10 mM Na2HPO4, pH 7.4). Filter plates were subsequently dried at 50° C. for 2-3 hours. Fifty μl/well scintillation cocktail (Perkin Elmer, Shelton, Conn.) was added and plates were counted in a Packard Top-Count for 1 min/well.
κ GTP EC50 is the concentration of a compound providing 50% of the maximal response for the compound at a κ receptor.
κ GTP Emax (%) is the maximal effect elicited by a compound relative to the effect elicited by U69,593.
The following TABLE 5 provides results on the activity response of certain Compounds of the Invention at the μ- and κ-opioid receptors determined as described above using U-2 OS cells.

Structure (SMILES) | Ki (μ-opioid receptor [1]) | Ki [2] | EC50 (μ-opioid receptor [3]) | Emax (μ-opioid receptor [3]) | EC50 (μ-opioid receptor [4]) | Emax (μ-opioid receptor [4]) | EC50 (κ-opioid receptor) | Emax (κ-opioid receptor)
COc1ccc2c(c1)[C@]13CCN(CC4CC4)[C@H](C2)[C@]12CC[C@@](N)(CO2)C3 [Compound 8, (4bR,6S,8aS,9R)-11-(cyclopropylmethyl)-3-methoxy-5,6,7,8,9,10-hexahydro-9,4b-(epiminoethano)-8a,6-(epoxymethano)phenanthren-6-amine] | 773 ± 161 nM | 4.72 ± 1.07 nM | 1110 ± 242 nM | 27.8 ± 2.17% | 88.8 ± 20.6 nM | 106 ± 2.96% | 34.5 ± 3.61 nM | 112 ± 1.33%
COc1ccc2c(c1)[C@]13CCN(CC4CC4)[C@H](C2)[C@]12CC[C@@](NCc1ccccc1)(CO2)C3 [Compound 10, (4bR,6S,8aS,9R)-N-benzyl-11-(cyclopropylmethyl)-3-methoxy-5,6,7,8,9,10-hexahydro-9,4b-(epiminoethano)-8a,6-(epoxymethano)phenanthren-6-amine] | 25.9 ± 5.36 nM | 0.026 nM | 53.3 ± 3.93 nM | 31.7 ± 1.67% | 2.08 ± 0.12 nM | 110 ± 2.52% | 0.23 ± 0.01 nM | 107 ± 5.36%
COc1ccc2c(c1)[C@]13CCN(CC4CC4)[C@H](C2)[C@]12CC[C@@](NCC1CCCCC1)(CO2)C3 [Compound 11, (4bR,6S,8aS,9R)—N-(cyclohexylmethyl)-11-(cyclopropylmethyl)-3-methoxy-5,6,7,8,9,10-hexahydro-9,4b-(epiminoethano)-8a,6-(epoxymethano)phenanthren-6-amine] | 0.93 ± 0.11 nM | 0.052 ± 0.015 nM | 1.78 ± 0.05 nM | 75.7 ± 4.1% | 0.033 nM | 101 ± 2.08% | 0.042 nM | 101.3 ± 0.88%
COc1ccc2c(c1)[C@]13CCN(CC4CC4)[C@H](C2)[C@]12CC[C@@](NC(=O)c1ccccc1)(CO2)C3 [Compound 18, N-((4bR,6S,8aS,9R)-11-(cyclopropylmethyl)-3-methoxy-5,6,7,8,9,10-hexahydro-9,4b-(epiminoethano)-8a,6-(epoxymethano)phenanthren-6-yl)benzamide] | 35.9 ± 8.18 nM | 0.032 ± 0.01 nM | 175 ± 21.7 nM | 41 ± 1.58% | 7.53 ± 0.69 nM | 107 ± 8.35% | 0.42 ± 0.016 nM | 111 ± 2.6%
COc1ccc2c(c1)[C@]13CCN(CC4CC4)[C@H](C2)[C@]12CC[C@@](NC(=O)CCc1ccccc1)(CO2)C3 [Compound 19, N-((4bR,6S,8aS,9R)-11-(cyclopropylmethyl)-3-methoxy-5,6,7,8,9,10-hexahydro-9,4b-(epiminoethano)-8a,6-(epoxymethano)phenanthren-6-yl)-3-phenylpropanamide] | 9.26 ± 3.2 nM | 1.58 ± 0.44 nM | 41.2 ± 12.8 nM | 29.8 ± 1.96% | 1.37 ± 0.11 nM | 102 ± 5.7% | 2.84 ± 0.33 nM | 109.7 ± 0.33%
COc1ccc2c(c1)[C@]13CCN(CC4CC4)[C@H](C2)[C@]12CC[C@@](NC(=O)c1ccc(Cl)cc1)(CO2)C3 [Compound 20, N-((4bR,6S,8aS,9R)-11-(cyclopropylmethyl)-3-methoxy-5,6,7,8,9,10-hexahydro-9,4b-(epiminoethano)-8a,6-(epoxymethano)phenanthren-6-yl)-4-chlorobenzamide] | 24.7 ± 3.5 nM | 0.6 ± 0.098 nM | 52.4 ± 11.7 nM | 20.2 ± 0.48% | 3.23 ± 0.13 nM | 102 ± 2.85% | 3.24 ± 0.082 nM | 115 ± 2.85%
COc1ccc2c(c1)[C@]13CCN(CC4CC4)[C@H](C2)[C@]12CC[C@@](NC(=O)C1CC1)(CO2)C3 [Compound 22, N-((4bR,6S,8aS,9R)-11-(cyclopropylmethyl)-3-methoxy-5,6,7,8,9,10-hexahydro-9,4b-(epiminoethano)-8a,6-(epoxymethano)phenanthren-6-yl)cyclopropanecarboxamide] | 126 ± 20.7 nM | 0.3 ± 0.055 nM | 939 ± 394 nM | 18 ± 0.41% | 71.2 ± 10.8 nM | 90.7 ± 2.73% | 0.9 ± 0.096 nM | 111 ± 2.6%
COc1ccc2c(c1)[C@]13CCN(CC4CC4)[C@H](C2)[C@]12CC[C@@](NC(=O)CC(F)(F)F)(CO2)C3 [Compound 23, N-((4bR,6S,8aS,9R)-11-(cyclopropylmethyl)-3-methoxy-5,6,7,8,9,10-hexahydro-9,4b-(epiminoethano)-8a,6-(epoxymethano)phenanthren-6-yl)-3,3,3-trifluoropropanamide] | 136 ± 35.7 nM | 0.66 ± 0.22 nM | 419 ± 108 nM | 39.5 ± 2.1% | 21.6 ± 1.38 nM | 98.7 ± 1.45% | 1.79 ± 0.25 nM | 115 ± 3.06%
COc1ccc2c(c1)[C@]13CCN(CC4CC4)[C@H](C2)[C@]12CC[C@@](NS(=O)(=O)c1ccc(Cl)cc1)(CO2)C3 [Compound 24, 4-Chloro-N-((4bR,6S,8aS,9R)-11-(cyclopropylmethyl)-3-methoxy-5,6,7,8,9,10-hexahydro-9,4b-(epiminoethano)-8a,6-(epoxymethano)phenanthren-6-yl)-benzenesulfonamide] | 0.29 ± 0.043 nM | 0.057 ± 0.01 nM | > 20000 nM | 6% | 0.25 ± 0.014 nM | 71.7 ± 0.67% | 0.11 ± 0.011 nM | 114 ± 2.73%
